Test: xn = mol fraction of the nth substance listed

CC[n+]1ccn(C)c1.F[P-](F)(F)(F)(F)F + CC(C)[C@H](N)C(=O)O + O
100 kPa
Settings | electrical conductivity, 298.15 K [S/m] | electrical conductivity, 303.15 K [S/m] | electrical conductivity, 308.15 K [S/m] | viscosity, 298.15 K [mPa·s] | viscosity, 303.15 K [mPa·s] | viscosity, 308.15 K [mPa·s]
x2 = 0.0001802, x1 = 1.802e-05 | 0.0115 | 0.0132 | 0.0158 | 0.924 | 0.855 | 0.783
x2 = 0.0001803, x1 = 5.405e-05 | 0.0309 | 0.0338 | 0.0369 | 0.939 | 0.861 | 0.788
x2 = 0.0001804, x1 = 9.008e-05 | 0.0452 | 0.0507 | 0.0552 | 0.954 | 0.865 | 0.792
x2 = 0.0004522, x1 = 1.801e-05 | 0.0121 | 0.0136 | 0.0156 | 0.93 | 0.862 | 0.79
x2 = 0.0004524, x1 = 5.403e-05 | 0.0301 | 0.0329 | 0.0366 | 0.946 | 0.868 | 0.795
x2 = 0.0004526, x1 = 9.005e-05 | 0.046 | 0.0507 | 0.0551 | 0.963 | 0.876 | 0.801
x2 = 0.0007258, x1 = 1.801e-05 | 0.0124 | 0.0141 | 0.016 | 0.936 | 0.869 | 0.797
x2 = 0.0007262, x1 = 5.402e-05 | 0.0308 | 0.0336 | 0.0361 | 0.953 | 0.875 | 0.802
x2 = 0.0007265, x1 = 9.003e-05 | 0.0494 | 0.0548 | 0.0593 | 0.97 | 0.884 | 0.808
x2 = 0.0009976, x1 = 1.8e-05 | 0.0136 | 0.015 | 0.0177 | 0.942 | 0.876 | 0.803
x2 = 0.000998, x1 = 5.4e-05 | 0.0304 | 0.0333 | 0.0354 | 0.96 | 0.883 | 0.811
x2 = 0.0009985, x1 = 9e-05 | 0.0457 | 0.051 | 0.0553 | 0.979 | 0.893 | 0.818
x2 = 0.001273, x1 = 1.8e-05 | 0.0147 | 0.0167 | 0.0199 | 0.948 | 0.882 | 0.811
x2 = 0.001273, x1 = 5.399e-05 | 0.0323 | 0.0341 | 0.0377 | 0.969 | 0.89 | 0.819
x2 = 0.001274, x1 = 8.998e-05 | 0.0487 | 0.0538 | 0.0594 | 0.988 | 0.899 | 0.826
x2 = 0.001546, x1 = 1.799e-05 | 0.0161 | 0.0182 | 0.0218 | 0.954 | 0.888 | 0.818
x2 = 0.001547, x1 = 5.397e-05 | 0.0327 | 0.0343 | 0.0383 | 0.976 | 0.897 | 0.827
x2 = 0.001547, x1 = 8.995e-05 | 0.0455 | 0.0512 | 0.0549 | 0.996 | 0.908 | 0.833

CC(=O)[O-].CCCC[P+](CCCC)(CCCC)CCCC + CC(=O)[O-].CCCC[n+]1ccn(C)c1
101 kPa
Settings | viscosity [mPa·s]
313.15 K, x2 = 0.751 | 246
323.15 K, x2 = 0.5018 | 169.2

CNC(C)=O + CCCC[n+]1ccn(C)c1.F[B-](F)(F)F
101 kPa
Settings | viscosity [mPa·s]
293.15 K, x2 = 0.0711 | 6.4
293.15 K, x2 = 0.1409 | 7.42
293.15 K, x2 = 0.4343 | 19.1
293.15 K, x2 = 0.7774 | 65.8
298.15 K, x2 = 0.0711 | 5.41
298.15 K, x2 = 0.2042 | 7.19
298.15 K, x2 = 0.4992 | 19.7
298.15 K, x2 = 0.7774 | 51.7
303.15 K, x2 = 0.1409 | 5.66
308.15 K, x2 = 0 | 3.53
308.15 K, x2 = 0.714 | 24.7
313.15 K, x2 = 0.4992 | 9.8
318.15 K, x2 = 0.0711 | 3.3
318.15 K, x2 = 0.1409 | 3.74

CC(=O)[O-].Cn1cc[nH+]c1 + O
Settings | electrical conductivity [S/m] | viscosity [mPa·s]
293.15 K, 101.3 kPa, x2 = 0.0705 | 0.905 | –
293.15 K, 101.3 kPa, x2 = 0.1339 | 1.176 | –
293.15 K, 101.3 kPa, x2 = 0.8407 | 8.771 | –
293.15 K, 101.3 kPa, x2 = 0.9035 | 6.875 | –
298.15 K, 101 kPa, x1 = 0.0051 | 1.17 | –
298.15 K, 101 kPa, x1 = 0.0151 | 2.49 | –
298.15 K, 101 kPa, x2 = 0.9502 | 3.87 | –
298.15 K, 101 kPa, x2 = 0.98 | 2.71 | –
303.15 K, 101 kPa, x2 = 0 | – | 5.91
313.15 K, 101 kPa, x2 = 0 | – | 4.395

NCCOCCO + O + CCCC[n+]1ccn(C)c1.O=S(=O)([O-])C(F)(F)F
viscosity [mPa·s], 101 kPa
Settings | 293.15 K | 298.15 K | 303.15 K | 308.15 K | 313.15 K | 318.15 K | 323.15 K | 328.15 K | 333.15 K
x1 = 0.182, x2 = 0.8049 | 11.31 | 9.2 | 7.59 | 6.34 | 5.37 | 4.581 | 3.959 | 3.457 | 3.052
x1 = 0.2233, x2 = 0.7322 | 15.97 | 12.84 | 10.48 | 8.66 | 7.252 | 6.139 | 5.248 | 4.534 | 3.956
x1 = 0.4053, x2 = 0.4752 | 28.79 | 22.55 | 17.99 | 14.6 | 12.01 | 10.05 | 8.52 | 7.25 | 6.179

From the CheMixHub ionic liquid set
